For 19 compounds, EC50 results are on record in patent US20240018133A1, “MODULATORS OF THE INTEGRATED STRESS PATHWAY” (Calico Life Sciences LLC, priority 2019, published 2024).

This assay deals with ATF4 luciferase reporter (human full-length ATF4 5'-UTR fused to firefly luciferase) in HEK293T cells. Kind of assay: ATF4-Luc assay (in vitro model of VWMD): HEK293T cells carrying ATF4 luciferase reporter, tunicamycin-treated. The format is cell-based. To be noted: Homo sapiens, HEK-293T, 1 μg/mL tunicamycin, 7 hours, One Glo luminescence. In outline: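 Stable HEK293T line with human ATF4 5′-UTR–firefly luciferase reporter treated with 1 μg/mL tunicamycin plus 200 nM compound for 7 h. Luminescence read; EC50 derived.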
For `O=C(COc1ccc(Cl)c(F)c1)NC12CC(NC(=O)[C@H]3CC(=O)c4cc(Cl)ccc4O3)(C1)C2` [Compound 223, (2R)-6-chloro-N-{3-[2-(4-chloro-3-fluorophenoxy)acetamido]bicyclo[1.1.1]pentan-1-yl}-4-oxo-3,4-dihydro-2H-1-benzopyran-2-carboxamide], the EC50 is below 10 nM.
For the compound `C[C@@]1(C(=O)NC23CC(NC(=O)COc4ccc(Cl)c(F)c4)(C2)C3)Oc2ccc(Cl)cc2C1O` (stereo partly drawn) [Compound 263, (2R)-5-chloro-N-{3-[2-(4-chloro-3-fluorophenoxy)acetamido]bicyclo[1.1.1]pentan-1-yl}-3-hydroxy-2-methyl-2,3-dihydro-1-benzofuran-2-carboxamide], the EC50 is above 2000 nM.
As to `O=C(COc1ccc(Cl)c(F)c1)NC12CC(NC(=O)[C@@H]3C[C@H](O)c4ccccc4O3)(C1)C2` [Compound 270, (2S,4S)—N-{3-[2-(4-chloro-3-fluorophenoxy)acetamido]bicyclo[1.1.1]pentan-1-yl}-4-hydroxy-3,4-dihydro-2H-1-benzopyran-2-carboxamide], the EC50 lay within 50 to 250 nM.
With `O=C(COc1ccc(Cl)c(F)c1)NC12CC(NC(=O)[C@H]3C[C@@H](O)c4cc(F)c(F)cc4O3)(C1)C2` [Compound 252, (2R,4R)—N-{3-[2-(4-chloro-3-fluorophenoxy)acetamido]bicyclo[1.1.1]pentan-1-yl}-6,7-difluoro-4-hydroxy-3,4-dihydro-2H-1-benzopyran-2-carboxamide] the figure was below 10 nM; with `O=C(NC12CC(NC(=O)[C@H]3C[C@@H](O)c4cc(Cl)ccc4O3)(C1)C2)c1cnc(C2CC2)o1` [Compound 383, N-(3-{[(2R,4R)-6-chloro-4-hydroxy-3,4-dihydro-2H-1-benzopyran-2-carbonyl]amino}bicyclo[1.1.1]pentan-1-yl)-2-cyclopropyl-1,3-oxazole-5-carboxamide], 50 to 250 nM; with `O=C(COc1ccc(Cl)c(F)c1)NC12CCC(NC(=O)[C@H]3C[C@@H](O)c4cc(Cl)ccc4O3)(CC1)NC2=O` (racemic) [Compound 364, rac-(2R,4R)-6-chloro-N-{4-[2-(4-chloro-3-fluorophenoxy)acetamido]-3-oxo-2-azabicyclo[2.2.2]octan-1-yl}-4-hydroxy-3,4-dihydro-2H-1-benzopyran-2-carboxamide], below 10 nM.
On to `O=C(COc1ccc(Cl)c(F)c1)NC12CC(NC(=O)[C@H]3C=Cc4cc(Cl)ccc4O3)(C1)C2` [Compound 307, (2R)-6-chloro-N-{3-[2-(4-chloro-3-fluorophenoxy)acetamido]bicyclo[1.1.1]pentan-1-yl}-2H-1-benzopyran-2-carboxamide], for which the EC50 was below 10 nM.
With `O=C(COc1ccc(Cl)c(F)c1)NC12CC(NC(=O)[C@@H]3C[C@H](O)c4cc(F)c(F)cc4O3)(C1)C2` [Compound 253, (2S,4S)—N-{3-[2-(4-chloro-3-fluorophenoxy)acetamido]bicyclo[1.1.1]pentan-1-yl}-6,7-difluoro-4-hydroxy-3,4-dihydro-2H-1-benzopyran-2-carboxamide] the figure was below 10 nM; with `O=C(COc1ccc(Cl)c(F)c1)NC12CC(NC(=O)C3CC(=O)c4cc(F)c(F)cc4O3)(C1)C2` (stereo not shown) [Compound 248, N-{3-[2-(4-chloro-3-fluorophenoxy)acetamido]bicyclo[1.1.1]pentan-1-yl}-6,7-difluoro-4-oxo-3,4-dihydro-2H-1-benzopyran-2-carboxamide], below 10 nM; with `O=C(NC12CC(NC(=O)[C@H]3C[C@@H](O)c4cc(Cl)ccc4O3)(C1)C2)c1cnn([C@H]2C[C@@H](OC(F)(F)F)C2)c1` [Compound 381, N-(3-{[(2R,4R)-6-chloro-4-hydroxy-3,4-dihydro-2H-1-benzopyran-2-carbonyl]amino}bicyclo[1.1.1]pentan-1-yl)-1-[cis-3-(trifluoromethoxy)cyclobutyl]-1H-pyrazole-4-carboxamide], below 10 nM.
In the case of `O=C(COc1ccc(F)c(F)c1)NC12CC(NC(=O)[C@H]3C[C@@H](O)c4cc(Cl)ccc4O3)(C1)C2` [Compound 277, (2R,4R)-6-chloro-N-{3-[2-(3,4-difluorophenoxy)acetamido]bicyclo[1.1.1]pentan-1-yl}-4-hydroxy-3,4-dihydro-2H-1-benzopyran-2-carboxamide] it was below 10 nM.
Regarding `O=C(COc1ccc(Cl)c(F)c1)NC12CC(NC(=O)C3CNc4cc(Cl)ccc4O3)(C1)C2` (single isomer, unassigned) [Compound 102], the EC50 is below 10 nM.
As to `O=C(COc1ccc(F)c(F)c1)NC12CC(NC(=O)[C@@H]3CC(=O)c4cc(F)c(F)cc4O3)(C1)C2` [Compound 321, (2S)—N-{3-[2-(3,4-difluorophenoxy)acetamido]bicyclo[1.1.1]pentan-1-yl}-6,7-difluoro-4-oxo-3,4-dihydro-2H-1-benzopyran-2-carboxamide], the EC50 lay in the range of 50 to 250 nM.
On to `CCc1ncc(C(=O)NC23CCC(NC(=O)[C@H]4C[C@@H](O)c5cc(Cl)ccc5O4)(CC2)C[C@@H]3O)o1` [Compound 274, N-[(2S)-4-{[(2R,4R)-6-chloro-4-hydroxy-3,4-dihydro-2H-1-benzopyran-2-carbonyl]amino}-2-hydroxybicyclo[2.2.2]octan-1-yl]-2-ethyl-1,3-oxazole-5-carboxamide], for which the EC50 lay in the range of 50 to 250 nM.
Turning to `C[C@]1(C(=O)NC23CC(NC(=O)COc4ccc(Cl)c(F)c4)(C2)C3)Oc2ccc(Cl)cc2C1=O` [Compound 259, (2S)-5-chloro-N-{3-[2-(4-chloro-3-fluorophenoxy)acetamido]bicyclo[1.1.1]pentan-1-yl}-2-methyl-3-oxo-2,3-dihydro-1-benzofuran-2-carboxamide], the EC50 fell in the range of 500 to 2000 nM.
With `O=C(COc1ccc(Cl)c(F)c1)NC12CC(NC(=O)[C@H]3C[C@H](O)c4cc(Cl)c(F)cc4O3)(C1)C2` [Compound 367, (2R,4S)-6-chloro-N-{3-[2-(4-chloro-3-fluorophenoxy)acetamido]bicyclo[1.1.1]pentan-1-yl}-7-fluoro-4-hydroxy-3,4-dihydro-2H-1-benzopyran-2-carboxamide] the figure was below 10 nM.
In the case of `O=C(COc1ccc(Cl)c(F)c1)NC12CC(NC(=O)[C@H]3C[C@@H](O)c4cc(F)c(F)cc4O3)(C1)C2` (racemic) [Compound 249, rac-(2R,4R)—N-{3-[2-(4-chloro-3-fluorophenoxy)acetamido]bicyclo[1.1.1]pentan-1-yl}-6,7-difluoro-4-hydroxy-3,4-dihydro-2H-1-benzopyran-2-carboxamide], the EC50 is below 10 nM.
In the case of `O=C(COc1ccc(Cl)c(F)c1)NC12CC(NC(=O)c3cc(=O)c4cc(Cl)cc(Cl)c4o3)(C1)C2` [Compound 289, 6,8-dichloro-N-{3-[2-(4-chloro-3-fluorophenoxy)acetamido]bicyclo[1.1.1]pentan-1-yl}-4-oxo-4H-1-benzopyran-2-carboxamide] it was 500 to 2000 nM.
As for `COC(=O)CN1C[C@@H](C(=O)NC23CC(NC(=O)COc4ccc(Cl)c(F)c4)(C2)C3)Oc2ccc(Cl)cc21` [Compound 211, methyl [(2S)-6-chloro-2-({3-[2-(4-chloro-3-fluorophenoxy)acetamido]bicyclo[1.1.1]pentan-1-yl}carbamoyl)-2,3-dihydro-4H-1,4-benzoxazin-4-yl]acetate], the EC50 lay in the range of 10 to 50 nM.

One may read the EC50 as the concentration needed to bring the measured effect to its halfway point.
